System: DMS-114 cells (TP53 R213X)
Assay: G418-induced PTC readthrough (full-length p53, capillary electrophoresis Western) in DMS-114 cells
Format: cell-based, human
Settings: for reduction of PTC readthrough compared with G418 alone: then 400 μg/ml G418 (Fig. 2A)
Excerpt: Variation in PTC readthrough response has been reported among individuals or cell lines with different nonsense mutations. Although this in part highlights the importance of the stop codon and its surrounding sequence as well as the physical location of the nonsense mutation in the mRNA sequence, understanding the contribution of other underlying genetic variations becomes more complicated. To rule out the effect of the sequence and position of nonsense mutations on response variation to potential PTC readthrough modulators, we studied two cancer cell lines, DMS-114 and TC-71, with identical homozygous nonsense mutation R213X in their TP53 gene. […] To find out whether the reduced response to G418 in TC-71 cells was associated with lower intracellular levels of G418, we measured concentrations of G418 in both cell lines at 0, 8 and 24 h post exposure to G418 (100 μg/ml).
Figure 1 Effect of TRPC inhibitors on G418 induced PTC readthrough. A, DMS-114 and TC-71 cell lines with homozygous TP53 nonsense mutation (R213X) were exposed to indicated concentrations of G418 for 24 h and p53 levels (full-length, FL-p53; truncated, TR-p53) were measured. B, 100 μg/ml G418 was added to DMS-114 and TC-71 cells and its total intracellular levels were measured at indicated time points (n = 5; data normalized to the highest response in each experiment; bars represent mean ± SD). C, DMS-114 cells were preincubated with indicated concentrations of TRPC inhibitors GFB-8438 (GFB), SAR7334 (SAR), SKF96365 (SKF), 2-APB, or AC1903 for 3 h followed by exposure to 400 μg/ml G418 for another 3 h. At 24 h cell lysates were prepared and p53 levels were measured. In panels A and C, protein levels were measured by automated capillary electrophoresis Western analysis (using vinculin and GAPDH as loading controls). Samples of cell lysates containing equal amounts of total protein were loaded in all capillaries and FL-p53 levels were expressed relative to the amount of FL-p53 in untreated cells. ∗ indicates statistically significant difference between samples according to two-way ANOVA (p < 0.05). PTC, premature termination codon; TRPC, transient receptor potential canonical.
To further investigate AC1903 as a suppressor of G418-induced PTC readthrough, we exposed DMS-114 and TC-71 cells to various concentrations of AC1903 for 3 h prior to exposure to 400 μg/ml G418 for another 3 h, followed by media replacement and incubation for another 18 h.
Figure 2 Effect of AC1903 on PTC readthrough and G418 trafficking.A and B, DMS-114 (A) or TC-71 (B) cells were pretreated with indicated concentrations of AC1903 for 3 h followed by exposure to 400 μg/ml G418. After 3 h medium was replenished and at 24 h cell lysates were prepared and p53 levels were measured. C and E, DMS-114 (C) or JEB01 (E) cells were either left untreated or pretreated with 150 μM AC1903 for 3 h followed by exposure to indicated concentrations of G418 for another 3 h. At 24 h cell lysates were prepared and p53 (C) or Collagen XVII (E) levels were measured. In panels A–C, protein levels were measured by automated capillary electrophoresis Western analysis (using vinculin as loading control). In panel E, protein levels were measured by Western blot (using beta-actin as loading control). Samples of cell lysates containing equal amounts of total protein were loaded in all capillaries and FL-p53 or Collagen XVII levels were expressed relative to their respective amounts in untreated cells. D, total intracellular levels of G418 were measured in the same lysates as in (C) (n = 5; data normalized to the highest response in each experiment; bars represent mean ± SD). F, total intracellular levels of G418 were measured in the same lysates as in (E) (n = 2; data normalized to the highest response in each experiment; bars represent mean ± SD). ∗ indicates statistically significant difference between samples according to one-way ANOVA (p < 0.05). PTC, premature termination codon. […]

c1ccc(Cn2c(NCc3ccco3)nc3ccccc32)cc1 [AC1903]
effect on G418-induced PTC readthrough (150 μM AC1903 3 h, then 400 μg/ml G418 (Fig. S12)): strongly reduced | reduction of PTC readthrough compared with G418 alone (AC1903 50 μM 3 h): 20% | suppression of G418-induced PTC readthrough (AC1903 50 μM, 400 μg/ml G418 (Fig. 1C)): ~27% | reduction of PTC readthrough compared with G418 alone (AC1903 150 μM 3 h): 74% | decrease in full-length p53 (pretreatment 150 μM AC1903, increasing concentrations of G418 (Fig. 2C)): ~70% | effect on PTC readthrough of AC1903 alone (without G418): did not affect PTC readthrough

— publication PMC8808171, “Nonselective TRPC channel inhibition and suppression of aminoglycoside-induced premature termination codon readthrough by the small molecule AC1903” (The Journal of Biological Chemistry, 2022)
